{"source": "paper PMC5714945", "about": "“A homologue of the Parkinson’s disease-associated protein LRRK2 undergoes a monomer-dimer transition during GTP turnover” (Nature Communications, 2017)", "key": {"CtRoc-COR": {"target": "T1, CtRoc-COR (Chlorobaculum tepidum, UniProt Q8KC98)", "T1 construct": "gene CT1526; Roc-COR domains, residues 412-946, N-terminal His-tag (pProEX), E. coli BL21(DE3); dimer nucleotide-free, about 65 kDa monomer", "T1 sequence (Q8KC98 412-946)": "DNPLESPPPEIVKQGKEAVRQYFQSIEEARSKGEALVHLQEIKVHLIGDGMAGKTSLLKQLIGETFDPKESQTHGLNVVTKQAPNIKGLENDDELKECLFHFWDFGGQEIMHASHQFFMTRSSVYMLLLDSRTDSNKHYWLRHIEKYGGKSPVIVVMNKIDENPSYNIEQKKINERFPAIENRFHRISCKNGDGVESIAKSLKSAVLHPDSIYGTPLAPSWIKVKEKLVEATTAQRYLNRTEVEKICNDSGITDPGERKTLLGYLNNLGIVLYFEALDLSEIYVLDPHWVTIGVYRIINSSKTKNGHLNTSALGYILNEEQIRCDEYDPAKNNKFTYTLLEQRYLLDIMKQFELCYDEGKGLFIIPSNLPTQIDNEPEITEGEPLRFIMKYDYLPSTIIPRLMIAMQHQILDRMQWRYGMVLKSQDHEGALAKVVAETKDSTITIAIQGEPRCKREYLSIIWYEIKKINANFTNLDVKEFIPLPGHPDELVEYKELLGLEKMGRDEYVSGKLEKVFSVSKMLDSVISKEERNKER", "assay": "SEC-SAXS (conformational change)", "format": "binding", "conditions": "pre-incubated with 1 mM, pH 7.5, 5 mM MgCl2"}, "CtRoco": {"target": "T2, CtRoco (Chlorobaculum tepidum, UniProt Q8KC98)", "T2 construct": "gene CT1526; full length, residues 1-1102, N-terminal His-tag (pProEX), E. coli BL21(DE3); dimer nucleotide-free, monomer/dimer equilibrium with GppNHp", "T2 sequence (Q8KC98 1-1102)": "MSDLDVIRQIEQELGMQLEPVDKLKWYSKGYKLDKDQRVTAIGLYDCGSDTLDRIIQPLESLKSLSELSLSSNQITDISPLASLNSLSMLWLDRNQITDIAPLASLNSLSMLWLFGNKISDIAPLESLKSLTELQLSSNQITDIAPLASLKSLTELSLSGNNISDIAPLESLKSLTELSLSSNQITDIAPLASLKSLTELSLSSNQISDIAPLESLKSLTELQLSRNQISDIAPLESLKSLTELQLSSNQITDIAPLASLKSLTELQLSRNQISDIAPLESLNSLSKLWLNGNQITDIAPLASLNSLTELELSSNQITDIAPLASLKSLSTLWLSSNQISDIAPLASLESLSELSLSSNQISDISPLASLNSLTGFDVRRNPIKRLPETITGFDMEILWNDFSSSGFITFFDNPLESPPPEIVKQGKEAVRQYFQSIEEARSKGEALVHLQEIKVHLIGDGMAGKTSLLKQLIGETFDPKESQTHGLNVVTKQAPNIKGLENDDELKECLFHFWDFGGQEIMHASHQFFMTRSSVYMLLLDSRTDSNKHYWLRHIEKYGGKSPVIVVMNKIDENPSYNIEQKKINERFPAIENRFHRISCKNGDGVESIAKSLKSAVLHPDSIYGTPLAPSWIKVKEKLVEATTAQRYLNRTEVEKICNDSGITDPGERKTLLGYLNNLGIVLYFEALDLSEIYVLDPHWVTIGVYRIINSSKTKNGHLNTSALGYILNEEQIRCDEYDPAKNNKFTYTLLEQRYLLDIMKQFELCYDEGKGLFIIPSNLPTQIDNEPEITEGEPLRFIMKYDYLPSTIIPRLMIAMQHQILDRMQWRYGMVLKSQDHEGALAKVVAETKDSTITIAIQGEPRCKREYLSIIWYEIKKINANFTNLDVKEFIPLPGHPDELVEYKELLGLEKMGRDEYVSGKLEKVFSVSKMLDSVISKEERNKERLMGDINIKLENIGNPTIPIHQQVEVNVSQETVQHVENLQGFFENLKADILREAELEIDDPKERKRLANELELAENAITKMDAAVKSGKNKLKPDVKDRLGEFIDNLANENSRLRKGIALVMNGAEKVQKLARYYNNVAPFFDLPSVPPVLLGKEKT", "assay": "SEC-SAXS, AUC, negative-stain EM (conformational and oligomeric change)", "format": "binding", "conditions": "pre-incubated with 1 mM (SAXS, EM), pH 7.5, 5 mM MgCl2"}}}
{"smiles": "Nc1nc2c(ncn2[C@@H]2O[C@H](COP(=O)(O)OP(=O)(O)O)[C@@H](O)[C@H]2O)c(=O)[nH]1", "note": "[GDP]", "values": [{"measurement": "SEC-SAXS (conformational change)", "setting": "CtRoc-COR", "result": "when CtRoc-COR is saturated with either GDP or GppNHp conformational changes are taking place"}, {"measurement": "SEC-SAXS, AUC, negative-stain EM (conformational and oligomeric change)", "setting": "CtRoco", "result": "conformational changes occur in both the CtRoco GppNHp- and GDP-bound states"}]}
